For series [1] the following is noted: for Simulated gastric fluid (pH 1.1): % remaining after 2 h/37° C. / Simulated intestinal fluid (pH 6.8): % remaining after 2 h/37° C.: simulated gi fluid.
The target in series [2] is acetyl choline esterase (Homo sapiens, UniProt P22303). Put plainly: In vitro assessment with a human acetyl choline esterase preparation. The format is biochemical.
Series [3] concerns rat colon circular muscle strips. The format is cell-based. Further details: unit not given here. The following applies: rat colonic strips, EFS.
For series [4], the system named is ferret. The note with it: for Total number of individual incidences of: Retching / Total number of individual incidences of: Vomiting: individual ferrets, 150 mg/kg oral, naloxone 0.5 mg/kg s.c. pretreatment, observed 2 hours.
The subject of series [5] is human colon circular muscle strips. Type of series: cell-based. The following applies: human colonic strips, EFS.
The conditions of series [6]: Beagle, dog, in vivo, po, 1 mg/kg.
In series [7] the test system is gastro-intestinal motility in the rat. Description: Charcoal propulsion test (gastro-intestinal motility) in the rat. The following applies: oral; for delay of the passage of the charcoal meal (gut motility): 30 mg/kg dose or equimolar dose of prodrug.
The subject of series [8] is guinea pig small intestine myenteric plexus longitudinal muscle. Description: tissue or blood. Type of series: cell-based. The following applies: for EC50: Cavia porcellus, read-out: EC50 for inhibition of contractility.
[9] abbreviates: listed as meptazinol valine carbamate.
[10] abbreviates: female, ferret, in vivo, po, 150 mg/kg.
The mark [11] stands for this setting: 10 mg/kg, 60 min before charcoal, 30 min after charcoal.

Values joined by “and” are separate entries in the source; they are usually repeats but may differ in a detail not shown here. Identical values can stand only once. Counter-ions that a name gives are not always drawn. Like-named read-outs stand apart in the source and are kept apart here.

acetyl choline esterase, sequence (P22303 32-614): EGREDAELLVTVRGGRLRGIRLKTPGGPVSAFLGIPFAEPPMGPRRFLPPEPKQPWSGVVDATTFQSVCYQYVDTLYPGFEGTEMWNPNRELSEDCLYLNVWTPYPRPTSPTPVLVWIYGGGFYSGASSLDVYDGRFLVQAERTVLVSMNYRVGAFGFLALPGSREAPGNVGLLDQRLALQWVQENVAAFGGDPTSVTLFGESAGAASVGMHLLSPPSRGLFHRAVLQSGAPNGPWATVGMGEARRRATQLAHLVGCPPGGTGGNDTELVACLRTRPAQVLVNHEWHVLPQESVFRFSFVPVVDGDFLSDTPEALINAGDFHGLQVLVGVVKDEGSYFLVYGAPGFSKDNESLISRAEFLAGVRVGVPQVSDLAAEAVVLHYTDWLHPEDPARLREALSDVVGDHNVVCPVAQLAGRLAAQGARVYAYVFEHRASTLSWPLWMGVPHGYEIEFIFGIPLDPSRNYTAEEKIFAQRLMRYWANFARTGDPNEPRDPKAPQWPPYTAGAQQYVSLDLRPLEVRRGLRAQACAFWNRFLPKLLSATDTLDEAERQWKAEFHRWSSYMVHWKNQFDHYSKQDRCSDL

`CC(C)[C@@H](NC(=O)OC1=C2OC3C(=O)CCC4[C@H]5CC(CC1)C2[C@@]34CCN5C)C(=O)O` (stereo partly drawn) [Hydromorphone valine carbamate, hydromorphone-(S)-valine carbamate trifluoroacetate]: in series [1], the “Distilled water (pH 5.9): % remaining after 2 h/20° C.” value (“Distilled water (pH 5.9): % remaining” below) was 100%, the “Simulated gastric fluid (pH 1.1): % remaining after 2 h/37° C.” value is given as 100% and the “Simulated intestinal fluid (pH 6.8): % remaining after 2 h/37° C.” value is 98%.
`CCC1(c2cccc(OC(=O)N[C@H](C(=O)O)C(C)C)c2)CCCCN(C)C1` (stereo partly drawn) [Meptazinol valine carbamate, meptazinol-(S)-valine carbamate trifluoroacetate]: in series [2], the “acetyl choline esterase inhibitory action” value is “loss of acetyl choline esterase inhibitory action”. Besides, the “Distilled water (pH 5.9): % remaining” value in series [1] is 100%. Further, in series [1], the “Simulated gastric fluid (pH 1.1): % remaining after 2 h/37° C.” value is 100%. Also, the “Simulated intestinal fluid (pH 6.8): % remaining after 2 h/37° C.” value in series [1] is listed as 99%. Also, the “Mean force of contraction ± sd” value in series [3] (0.01 μM) came out at 104.47; in series [3] (0.1 μM), 121.87; in series [3] (0.5 μM), 86.04; in series [3] (1.0 μM), 75.22; in series [3] (10 μM), 65.57; in series [3] (100 μM), 75.17. The “Mean force of contraction ± sd” value is 89.77 in series [5] (0.01 μM); 83.63 in series [5] (0.1 μM); 79.00 in series [5] (0.5 μM); 80.56 in series [5] (1.0 μM); 76.92 in series [5] (10 μM); 79.25 in series [5] (100 μM). In addition, the “animals demonstrating any retching and vomiting” value in series [4] (group of five ferrets, comparable molar dose, 2 hours) was “only one”. Moreover, the “Total number of individual incidences of: Retching” value was 0 (4×) and 2 in series [4]; 2 in series [4] (setting [9]). The “Total number of individual incidences of: Vomiting” value in series [4] was 0 (4×) and 1; in series [4] (setting [9]), 1.
Consider `CCC1(c2cccc(O)c2)CCCCN(C)C1` (stereo not drawn) [Meptazinol], for which, in series [4] (setting [10]), the “animals that exhibited retching and emesis” value was 50%; the “episodes of vomiting in animals that responded” value is listed as 1-17; the “retches observed in a 2 hour period in animals that responded” value is listed as 5-66. Besides, the “T½” value in series [6] was 2.8 h.
`CC(C)C(NC(=O)Oc1ccc2c3c1O[C@H]1C(=O)CC[C@@]4(O)[C@@H](C2)N(C)CC[C@]314)C(=O)O` (stereo partly drawn) [Oxymorphone valine carbamate, oxymorphone-(S)-valine carbamate hydrochloride]: in series [7] (10 mg/kg), the “% change from vehicle-treated animals, Small intestine” value (shortened to “% change … Small intestine”) was −4.9% and the “% change from vehicle-treated animals, Total gut length” value (“% change … Total gut length” below) was −3.9%. In series [7] (setting [11]), the “Group mean distance travelled by charcoal as % of (±sd) Small intestine” value is listed as 68.5 ± 7.85% and the “Group mean distance travelled by charcoal as % of (±sd) Total gut length” value amounted to 58.9 ± 6.95%. In addition, in series [7] (30 mg/kg), the “% change … Small intestine” value is listed as −13.7% and the “% change … Total gut length” value is given as −13.1%. For the same compound, the “delay of the passage of the charcoal meal (gut motility)” value in series [7] is listed as 14%. For the same compound, in series [1], the “Distilled water (pH 5.9): % remaining” value was 100%, the “Simulated gastric fluid (pH 1.1): % remaining after 2 h/37° C.” value is given as 100% and the “Simulated intestinal fluid (pH 6.8): % remaining after 2 h/37° C.” value is 97%. Also, in series [8], the Fold difference was 15.5 and the EC50 was 200 nM.
`CN1CC[C@]23c4c5ccc(O)c4O[C@H]2C(=O)CC[C@@]3(O)[C@H]1C5` [Oxymorphone]: the “% change … Small intestine” value was −5.0% in series [7] (1 mg/kg), −9.5% in series [7] (3 mg/kg), −24.1% in series [7] (10 mg/kg) and −69.5% in series [7] (30 mg/kg). For the same compound, the “% change … Total gut length” value in series [7] (1 mg/kg) is on record as −4.5%; in series [7] (3 mg/kg) it was −9.4%; in series [7] (10 mg/kg), −24.1%; in series [7] (30 mg/kg) it was −69.8%. The “delay of the passage of the charcoal meal (gut motility)” value in series [7] was 70%. Further, in series [8], the EC50 worked out at 12.9 nM. In addition, the “T½” value in series [6] stood at 2.2 h.

Broadly, the EC50 is the midpoint of the concentration-response curve.

Values taken from patent publication US20090192095A1 (priority 2008, published 2009).
